Data: PMC12649549, “Sequence Permutation Generated Lysine and Tryptophan-Rich Antimicrobial Peptides with Enhanced Therapeutic Index” (Antibiotics, 2025)
Read-outs that look alike come from different tables or passages of the source.

Experiments:
[1] = test system: A. baumannii 14B00100 (Acinetobacter sp., BCRC number 14B0100)
In short: (§1)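 Broth microdilution per CLSI in Müller-Hinton broth and modified LYM broth (pH 7.4; variants with 50–300 mM NaCl, 0.5–2.5 mM MgCl2, or pH 6.5–4.5). Inoculum 5 × 10^5 CFU/mL; peptides tested at 0.78–50 µg/mL final. MIC read; three independent repeats.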

[2] = test system: A. baumannii 14B0091 (Acinetobacter sp., BCRC number 14B0091)
In short: as §1

[3] = test system: Escherichia coli (ATCC 25922)
In short: as §1

[4] = test system: S. aureus ATCC 25923
In short: as §1

[5] = test system: S. aureus ATCC 33591
In short: as §1

[6] = test system: S. aureus ATCC 6538
In short: as §1

[7] = test system: Gram-negative bacteria; assay: Geometric mean MIC and therapeutic index, Gram-negative bacteria; type: cell-based; settings: Gram-negative bacteria; for GM G− (geometric mean of the MIC values): MH broth, MIC >50 µg/mL counted as 100 µg/mL; for Therapeutic Index (TI) G−: HC10/GM
In short: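 CLSI broth microdilution in Müller-Hinton broth and modified LYM broth (pH 7.4 base; NaCl, MgCl2 and pH varied), 5 × 10^5 CFU/mL inoculum, peptides 0.78–50 µg/mL final. TI = HC10 for human red blood cells divided by geometric mean MIC; three independent repeats.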

[8] = LYM broth, 0 mM NaCl, 16 h, 37 °C
[9] = LYM broth, 50 mM NaCl, 16 h, 37 °C
[10] = LYM broth, 100 mM NaCl, 16 h, 37 °C
[11] = LYM broth, 200 mM (NaCl), 16 h, 37 °C
[12] = LYM broth, 300 mM (NaCl), 16 h, 37 °C
[13] = MH broth, 5 × 10^5 CFU/mL, 16 h, 37 °C, repeated three times

Ac-WLAKKKKWRKWLK-NH2 [Peptide W5K08]
MIC [1, 8]: 3.13 µg/mL
MIC ([1]; LYM broth, 0.5 mM MgCl2): 3.13 µg/mL
MIC ([1]; LYM broth, 1.5 mM MgCl2): 3.13 µg/mL
MIC ([1]; LYM broth, 2.5 mM MgCl2): 6.25 µg/mL
MIC [1, 9]: 6.25 µg/mL
MIC [1, 10]: 25 µg/mL
MIC [1, 11]: >50 µg/mL
MIC [1, 12]: >50 µg/mL
MIC ([1]; LYM broth, pH 4.5): 3.13 µg/mL
MIC ([1]; LYM broth, pH 5.5): 3.13 µg/mL
MIC ([1]; LYM broth, pH 6.5): 3.13 µg/mL
MIC [1, 13]: >50 µg/mL
MIC [2, 8]: 3.13 µg/mL
MIC ([2]; LYM broth, 0.5 mM MgCl2): 3.13 µg/mL
MIC ([2]; LYM broth, 1.5 mM MgCl2): 3.13 µg/mL
MIC ([2]; LYM broth, 2.5 mM MgCl2): 6.25 µg/mL
MIC [2, 9]: 6.25 µg/mL
MIC [2, 10]: 25 µg/mL
MIC [2, 11]: >50 µg/mL
MIC [2, 12]: >50 µg/mL
MIC ([2]; LYM broth, pH 4.5): 6.25 µg/mL
MIC ([2]; LYM broth, pH 5.5): 3.13 µg/mL
MIC ([2]; LYM broth, pH 6.5): 3.13 µg/mL
MIC [2, 13]: >50 µg/mL
MIC [3, 8]: 3.13 µg/mL
MIC ([3]; LYM broth, 0.5 mM MgCl2): 6.25 µg/mL
MIC ([3]; LYM broth, 1.5 mM MgCl2): 6.25 µg/mL
MIC ([3]; LYM broth, 2.5 mM MgCl2): 6.25 µg/mL
MIC [3, 9]: 12.5 µg/mL
MIC [3, 10]: 12.5 µg/mL
MIC [3, 11]: 50 µg/mL
MIC [3, 12]: >50 µg/mL
MIC ([3]; LYM broth, pH 4.5): 3.13 µg/mL
MIC ([3]; LYM broth, pH 5.5): 3.13 µg/mL
MIC ([3]; LYM broth, pH 6.5): 3.13 µg/mL
MIC [3, 13]: 50 µg/mL
MIC [4, 8]: 1.56 µg/mL
MIC ([4]; LYM broth, 0.5 mM MgCl2): 3.13 µg/mL
MIC ([4]; LYM broth, 1.5 mM MgCl2): 6.25 µg/mL
MIC ([4]; LYM broth, 2.5 mM MgCl2): 6.25 µg/mL
MIC [4, 9]: 3.13 µg/mL
MIC [4, 10]: 12.5 µg/mL
MIC [4, 11]: 50 µg/mL
MIC [4, 12]: >50 µg/mL
MIC ([4]; LYM broth, pH 4.5): 3.13 µg/mL
MIC ([4]; LYM broth, pH 5.5): 3.13 µg/mL
MIC ([4]; LYM broth, pH 6.5): 1.56 µg/mL
MIC [4, 13]: 25 µg/mL
MIC [5, 8]: 25 µg/mL
MIC ([5]; LYM broth, 0.5 mM MgCl2): 25 µg/mL
MIC ([5]; LYM broth, 1.5 mM MgCl2): 50 µg/mL
MIC ([5]; LYM broth, 2.5 mM MgCl2): 50 µg/mL
MIC [5, 9]: 50 µg/mL
MIC [5, 10]: 50 µg/mL
MIC [5, 11]: 50 µg/mL
MIC [5, 12]: >50 µg/mL
MIC ([5]; LYM broth, pH 4.5): 25 µg/mL
MIC ([5]; LYM broth, pH 5.5): 25 µg/mL
MIC ([5]; LYM broth, pH 6.5): 12.5 µg/mL
MIC [5, 13]: >50 µg/mL
MIC [6, 8]: 12.5 µg/mL
MIC ([6]; LYM broth, 0.5 mM MgCl2): 3.13 µg/mL
MIC ([6]; LYM broth, 1.5 mM MgCl2): 6.25 µg/mL
MIC ([6]; LYM broth, 2.5 mM MgCl2): 6.25 µg/mL
MIC [6, 9]: 25 µg/mL
MIC [6, 10]: 50 µg/mL
MIC [6, 11]: 50 µg/mL
MIC [6, 12]: >50 µg/mL
MIC ([6]; LYM broth, pH 4.5): 12.5 µg/mL
MIC ([6]; LYM broth, pH 5.5): 6.25 µg/mL
MIC ([6]; LYM broth, pH 6.5): 6.25 µg/mL
MIC [6, 13]: >50 µg/mL
GM G− (geometric mean of the MIC values) [7]: 50.0 µg/mL
Therapeutic Index (TI) G− [7]: 2.2

Ac-WLKWLAKKKKWRK-NH2 [Peptide W5K05]
MIC [1, 8]: 0.78 µg/mL
MIC ([1]; LYM broth, 0.5 mM MgCl2): 1.56 µg/mL
MIC ([1]; LYM broth, 1.5 mM MgCl2): 1.56 µg/mL
MIC ([1]; LYM broth, 2.5 mM MgCl2): 1.56 µg/mL
MIC [1, 9]: 1.56 µg/mL
MIC [1, 10]: 3.13 µg/mL
MIC [1, 11]: 6.25 µg/mL
MIC [1, 12]: 12.5 µg/mL
MIC ([1]; LYM broth, pH 4.5): 1.56 µg/mL
MIC ([1]; LYM broth, pH 5.5): 1.56 µg/mL
MIC ([1]; LYM broth, pH 6.5): 1.56 µg/mL
MIC [1, 13]: 12.5 µg/mL
MIC [2, 8]: 1.56 µg/mL
MIC ([2]; LYM broth, 0.5 mM MgCl2): 1.56 µg/mL
MIC ([2]; LYM broth, 1.5 mM MgCl2): 1.56 µg/mL
MIC ([2]; LYM broth, 2.5 mM MgCl2): 1.56 µg/mL
MIC [2, 9]: 1.56 µg/mL
MIC [2, 10]: 3.13 µg/mL
MIC [2, 11]: 6.25 µg/mL
MIC [2, 12]: 25 µg/mL
MIC ([2]; LYM broth, pH 4.5): 3.13 µg/mL
MIC ([2]; LYM broth, pH 5.5): 1.56 µg/mL
MIC ([2]; LYM broth, pH 6.5): 1.56 µg/mL
MIC [2, 13]: 12.5 µg/mL
MIC [3, 8]: 1.56 µg/mL
MIC ([3]; LYM broth, 0.5 mM MgCl2): 3.13 µg/mL
MIC ([3]; LYM broth, 1.5 mM MgCl2): 6.25 µg/mL
MIC ([3]; LYM broth, 2.5 mM MgCl2): 6.25 µg/mL
MIC [3, 9]: 3.13 µg/mL
MIC [3, 10]: 12.5 µg/mL
MIC [3, 11]: 50 µg/mL
MIC [3, 12]: >50 µg/mL
MIC ([3]; LYM broth, pH 4.5): 1.56 µg/mL
MIC ([3]; LYM broth, pH 5.5): 1.56 µg/mL
MIC ([3]; LYM broth, pH 6.5): 1.56 µg/mL
MIC [3, 13]: 12.5 µg/mL
MIC [4, 8]: 1.56 µg/mL
MIC ([4]; LYM broth, 0.5 mM MgCl2): 1.56 µg/mL
MIC ([4]; LYM broth, 1.5 mM MgCl2): 3.13 µg/mL
MIC ([4]; LYM broth, 2.5 mM MgCl2): 3.13 µg/mL
MIC [4, 9]: 3.13 µg/mL
MIC [4, 10]: 6.25 µg/mL
MIC [4, 11]: 50 µg/mL
MIC [4, 12]: 50 µg/mL
MIC ([4]; LYM broth, pH 4.5): 1.56 µg/mL
MIC ([4]; LYM broth, pH 5.5): 1.56 µg/mL
MIC ([4]; LYM broth, pH 6.5): 1.56 µg/mL
MIC [4, 13]: 25 µg/mL
MIC [5, 8]: 6.25 µg/mL
MIC ([5]; LYM broth, 0.5 mM MgCl2): 6.25 µg/mL
MIC ([5]; LYM broth, 1.5 mM MgCl2): 12.5 µg/mL
MIC ([5]; LYM broth, 2.5 mM MgCl2): 12.5 µg/mL
MIC [5, 9]: 6.25 µg/mL
MIC [5, 10]: 12.5 µg/mL
MIC [5, 11]: 25 µg/mL
MIC [5, 12]: 50 µg/mL
MIC ([5]; LYM broth, pH 4.5): 6.25 µg/mL
MIC ([5]; LYM broth, pH 5.5): 3.13 µg/mL
MIC ([5]; LYM broth, pH 6.5): 3.13 µg/mL
MIC [5, 13]: 50 µg/mL
MIC [6, 8]: 3.13 µg/mL
MIC ([6]; LYM broth, 0.5 mM MgCl2): 1.56 µg/mL
MIC ([6]; LYM broth, 1.5 mM MgCl2): 1.56 µg/mL
MIC ([6]; LYM broth, 2.5 mM MgCl2): 3.13 µg/mL
MIC [6, 9]: 3.13 µg/mL
MIC [6, 10]: 6.25 µg/mL
MIC [6, 11]: 12.5 µg/mL
MIC [6, 12]: 25 µg/mL
MIC ([6]; LYM broth, pH 4.5): 3.13 µg/mL
MIC ([6]; LYM broth, pH 5.5): 1.56 µg/mL
MIC ([6]; LYM broth, pH 6.5): 1.56 µg/mL
MIC [6, 13]: 12.5 µg/mL
GM G− (geometric mean of the MIC values) [7]: 12.5 µg/mL
Therapeutic Index (TI) G− [7]: 8.7
